From patent US10696629B2, “Crystalline form of dextral oxiracetam, preparation method therefor and use thereof” (CHONGQING RUNZE PHARMACEUTICAL COMPANY LIMITED, priority 2016, dated 2020)
Entries after “also recorded” stand apart in the source; their conditions may differ.

Legend:
[1] = solubility in water; assay type: physicochemical
[2] = variable-temperature powder X-ray diffraction (crystal form stability at high temperatures); assay type: physicochemical; settings: heated from 30° C. to 80° C.; powder X-ray diffraction at 35, 45, 55, 65 and 75° C.
Experimental: The crystalline form III of dextral oxiracetam of the invention was placed on a single crystal silicon sample stage, heated from 30° C. to 80° C., and subjected to powder X-ray diffraction measurement at 35° C., 45° C., 55° C., 65° C. and 75° C., respectively. […] It can be seen that the crystalline form III of dextral oxiracetam of the invention has good stability at high temperatures. […] It can be confirmed that the crystalline form III of dextral oxiracetam is temperature stable. When the crystalline form III of dextral oxiracetam of the invention is used for storage or formulation processing, the requirements on processing and storage temperatures are reduced.

- solubility [1]: ≥ 100 mg/mL
SMILES: NC(=O)CN1C[C@H](O)CC1=O [dextral oxiracetam]
- crystal transformation on heating (stability at high temperatures) [2]: does not show a phenomenon of crystal transformation; also recorded: does not exhibit crystal transformation phenomenon
